Tests used:
[1] = test system: aryl hydrocarbon receptor (AHR) signaling; assay: Cypla1 mRNA (AHR signaling) in ileum of mice with experimental NEC, qPCR; format: in vivo, mouse; conditions: 4 days, vs vehicle
Experimental: (§1) Necrotizing enterocolitis (NEC) was induced in 7-day-old mouse pups by gavage feeding and hypoxia exposure for 4 days in presence of abacavir, lansoprazole, tranilast and raberprazole. The ileum was harvested at the end of the experiment and the mRNA expression of target genes was analyzed by qPCR.
Referring now to FIG. 1, the mRNA expression of Cypla1, the down-stream gene of aryl hydrocarbon receptor (AHR) signaling, was quantified in the ileum of experimental NEC models. Data are represented as mean±SEM; *p<0.05 between indicated groups; each dot represents an individual mouse.

[2] = test system: mice with NEC; assay: mRNA of proinflammatory cytokines and NEC markers in ileum of mice with experimental NEC, qPCR; format: in vivo, mouse; conditions: vs vehicle-treated group
Experimental: as §1
Referring now to FIG. 2, the mRNA expression of pro-inflammatory cytokine tumor necrosis factor alpha (Tnf) was quantified in the ileum of experimental NEC models. Data are represented as mean±SEM; *p<0.05 between indicated groups; each dot represents an individual mouse.
Referring now to FIG. 3, the mRNA expression of pro-inflammatory Interleukin-6 (IL-6) was quantified in the ileum of experimental NEC models. Data are represented as mean±SEM; *p<0.05 between indicated groups; each dot represents an individual mouse.
Referring now to FIG. 4, the mRNA expression of NEC marker S100 calcium binding protein A8 (S100a8) was quantified in the ileum of experimental NEC models. Data are represented as mean±SEM; *p<0.05 between indicated groups; each dot represents an individual mouse.
Referring now to FIG. 5, the mRNA expression of NEC marker lipocalin 2 (Lcn2) was quantified in the ileum of experimental NEC models. Data are represented as mean±SEM; *p<0.05 between indicated groups; each dot represents an individual mouse.
Referring now to FIG. 6, the mRNA expression of NEC marker intestinal fatty acid-binding protein (iFabp) was quantified in the ileum of experimental NEC models. Data are represented as mean±SEM; *p<0.05 between indicated groups; each dot represents an individual mouse.

SMILES | mRNA expression of Cypla1, the down-stream gene of AHR signaling [1] | mRNA expression of Interleukin-6 (IL-6) [2] | mRNA expression of NEC marker S100a8 [2] | mRNA expression of NEC marker lipocalin 2 (Lcn2) [2] | mRNA expression of tumor necrosis factor alpha (Tnf) [2] | mRNA expression of NEC marker iFabp [2]
Nc1nc(NC2CC2)c2ncn([C@H]3C=C[C@@H](CO)C3)c2n1 [abacavir] | activated AHR signaling pathway | significantly attenuated IL-6 expression | significantly attenuated S100a8 expression | significantly attenuated Lcn2 expression | significantly attenuated Tnf expression | –
Cc1c(OCC(F)(F)F)ccnc1C[S+]([O-])c1nc2ccccc2[nH]1 (centres unmarked) [lansoprazole] | activated AHR signaling pathway | significantly attenuated IL-6 expression | significantly attenuated S100a8 expression | significantly attenuated Lcn2 expression | significantly attenuated Tnf expression | significantly attenuated iFabp expression
COCCCOc1ccnc(C[S+]([O-])c2nc3ccccc3[nH]2)c1C (centres unmarked) [raberprazole] | nor raberprazole, activated AHR signaling pathway | – | significantly attenuated S100a8 expression | – | – | significantly attenuated iFabp expression

— patent US11458141B2, “Aryl hydrocarbon receptor (AhR) agonists for the prevention and treatment of inflammatory disorders” (The Johns Hopkins University, priority 2017, dated 2022)
